# Experimental data taken from PMC5146859, “Phase 1/2 study of pacritinib, a next generation JAK2/FLT3 inhibitor, in myelofibrosis or other myeloid malignancies” (Journal of Hematology & Oncology, 2016).
# Entries after “also recorded” stand apart in the source; their conditions may differ.
# Tested on: patients with advanced myeloid malignancies
# Assay: Phase 1 safety: adverse events (NCIC-CTCAE version 3.0)
# Format: in vivo, human
# Description: At screening/baseline, patients underwent a medical history, physical examination, vital sign assessment, ECOG PS assessment, electrocardiogram, and assessment of hematologic parameters and blood chemistry. Hematology/blood chemistry, physical examinations, and vital sign assessments were performed throughout treatment. Toxicity was assessed using the National Cancer Institute Common Terminology Criteria for Adverse Events (NCIC-CTCAE), version 3.0, with relationship to treatment assigned by the investigator and were recorded from the first dose of pacritinib until 30 days after the last dose. Bone marrow biopsy and/or aspirate samples were drawn at baseline, on day 1 of cycle 4 and cycle 10, as clinically indicated, and at the termination visit. Disease response and progression were determined using the relevant International Working Group (IWG) criteria.
# The efficacy-evaluable population included those patients with a baseline and corresponding follow-up value. The safety population included all enrolled patients who received ≥1 dose of pacritinib.
# [1] = phase 1, 500 mg QD cohort of seven
# [2] = phase 1, all patients n = 43, Grade 1/2
# [3] = phase 1, all patients n = 43, Grade 3/4
compound,measurement,setting,value
"C1=C/COCc2cc(ccc2OCCN2CCCC2)Nc2nccc(n2)-c2cccc(c2)COC/1 [pacritinib, 11-(2-pyrrolidin-1-yl-ethoxy)-14,19-dioxa-5,7,26-triaza-tetracyclo[19.3.1.1(2,6). 1(8,12)]heptacosa-1(25),2(26),3,5,8,10,12(27),16,21,23-decaene]",Treatment-emergent AE: Petechiae,"phase 1, 400 mg, n = 6",0 n (%)
same,Treatment-emergent AE: Pyrexia,"phase 1, 400 mg, n = 6",2 (33.3) n (%)
same,Treatment-emergent AE: Skin lesion,"phase 1, 400 mg, n = 6",0 n (%)
same,Treatment-emergent AE: Thrombocytopenia,"phase 1, 400 mg, n = 6",2 (33.3) n (%)
same,Treatment-emergent AE: Upper respiratory tract infection,"phase 1, 400 mg, n = 6",0 n (%)
same,Treatment-emergent AE: Vomiting,"phase 1, 400 mg, n = 6",3 (50.0) n (%)
same,Patients who discontinued treatment due to AEs,[1],two
same,Patients who experienced a serious AE,[1],three
same,Patients who required dose interruptions,[1],three
same,Patients who required dose reductions,[1],three
same,Treatment-emergent AE: Abdominal distension,"phase 1, 500 mg, n = 7",1 (14.3) n (%)
same,Treatment-emergent AE: Abdominal pain,"phase 1, 500 mg, n = 7",0 n (%)
same,Treatment-emergent AE: Anemia,"phase 1, 500 mg, n = 7",2 (28.6) n (%)
same,Treatment-emergent AE: Any AE,"phase 1, 500 mg, n = 7",7 (100.0) n (%)
same,Treatment-emergent AE: Asthenia,"phase 1, 500 mg, n = 7",1 (14.3) n (%)
same,Treatment-emergent AE: Back pain,"phase 1, 500 mg, n = 7",1 (14.3) n (%)
same,Treatment-emergent AE: Cardiac murmur,"phase 1, 500 mg, n = 7",1 (14.3) n (%)
same,Treatment-emergent AE: Chills,"phase 1, 500 mg, n = 7",1 (14.3) n (%)
same,Treatment-emergent AE: Constipation,"phase 1, 500 mg, n = 7",1 (14.3) n (%)
same,Treatment-emergent AE: Cough,"phase 1, 500 mg, n = 7",0 n (%)
same,Treatment-emergent AE: Decreased appetite,"phase 1, 500 mg, n = 7",0 n (%)
same,Treatment-emergent AE: Dehydration,"phase 1, 500 mg, n = 7",1 (14.3) n (%)
same,Treatment-emergent AE: Diarrhea,"phase 1, 500 mg, n = 7",7 (100.0) n (%)
same,Treatment-emergent AE: Dizziness,"phase 1, 500 mg, n = 7",1 (14.3) n (%)
same,Treatment-emergent AE: Dyspnea,"phase 1, 500 mg, n = 7",1 (14.3) n (%)
same,Treatment-emergent AE: Edema peripheral,"phase 1, 500 mg, n = 7",2 (28.6) n (%)
same,Treatment-emergent AE: Epistaxis,"phase 1, 500 mg, n = 7",0 n (%)
same,Treatment-emergent AE: Fatigue,"phase 1, 500 mg, n = 7",3 (42.9) n (%)
same,Treatment-emergent AE: Hyperbilirubinemia,"phase 1, 500 mg, n = 7",0 n (%)
same,Treatment-emergent AE: Hyperuricemia,"phase 1, 500 mg, n = 7",1 (14.3) n (%)
same,Treatment-emergent AE: Insomnia,"phase 1, 500 mg, n = 7",1 (14.3) n (%)
same,Treatment-emergent AE: Nausea,"phase 1, 500 mg, n = 7",5 (71.4) n (%)
same,Treatment-emergent AE: Neutropenia,"phase 1, 500 mg, n = 7",0 n (%)
same,Treatment-emergent AE: Night sweats,"phase 1, 500 mg, n = 7",1 (14.3) n (%)
same,Treatment-emergent AE: Pain in extremity,"phase 1, 500 mg, n = 7",0 n (%)
same,Treatment-emergent AE: Petechiae,"phase 1, 500 mg, n = 7",1 (14.3) n (%)
same,Treatment-emergent AE: Pyrexia,"phase 1, 500 mg, n = 7",2 (28.6) n (%)
same,Treatment-emergent AE: Skin lesion,"phase 1, 500 mg, n = 7",0 n (%)
same,Treatment-emergent AE: Thrombocytopenia,"phase 1, 500 mg, n = 7",1 (14.3) n (%)
same,Treatment-emergent AE: Upper respiratory tract infection,"phase 1, 500 mg, n = 7",0 n (%)
same,Treatment-emergent AE: Vomiting,"phase 1, 500 mg, n = 7",3 (42.9) n (%)
same,Treatment-emergent AE: Abdominal distension,"phase 1, 600 mg, n = 6",2 (33.3) n (%)
same,Treatment-emergent AE: Abdominal pain,"phase 1, 600 mg, n = 6",1 (16.7) n (%)
same,Treatment-emergent AE: Anemia,"phase 1, 600 mg, n = 6",3 (50.0) n (%)
same,Treatment-emergent AE: Any AE,"phase 1, 600 mg, n = 6",6 (100.0) n (%)
same,Treatment-emergent AE: Asthenia,"phase 1, 600 mg, n = 6",2 (33.3) n (%)
same,Treatment-emergent AE: Back pain,"phase 1, 600 mg, n = 6",0 n (%)
same,Treatment-emergent AE: Cardiac murmur,"phase 1, 600 mg, n = 6",2 (33.3) n (%)
same,Treatment-emergent AE: Chills,"phase 1, 600 mg, n = 6",1 (16.7) n (%)
same,Treatment-emergent AE: Constipation,"phase 1, 600 mg, n = 6",1 (16.7) n (%)
same,Treatment-emergent AE: Cough,"phase 1, 600 mg, n = 6",0 n (%)
same,Treatment-emergent AE: Decreased appetite,"phase 1, 600 mg, n = 6",1 (16.7) n (%)
same,Treatment-emergent AE: Dehydration,"phase 1, 600 mg, n = 6",1 (16.7) n (%)
same,Treatment-emergent AE: Diarrhea,"phase 1, 600 mg, n = 6",6 (100.0) n (%)
same,Treatment-emergent AE: Dizziness,"phase 1, 600 mg, n = 6",1 (16.7) n (%)
same,Treatment-emergent AE: Dyspnea,"phase 1, 600 mg, n = 6",3 (50.0) n (%)
same,Treatment-emergent AE: Edema peripheral,"phase 1, 600 mg, n = 6",3 (50.0) n (%)
same,Treatment-emergent AE: Epistaxis,"phase 1, 600 mg, n = 6",1 (16.7) n (%)
same,Treatment-emergent AE: Fatigue,"phase 1, 600 mg, n = 6",1 (16.7) n (%)
same,Treatment-emergent AE: Hyperbilirubinemia,"phase 1, 600 mg, n = 6",0 n (%)
same,Treatment-emergent AE: Hyperuricemia,"phase 1, 600 mg, n = 6",3 (50.0) n (%)
same,Treatment-emergent AE: Insomnia,"phase 1, 600 mg, n = 6",0 n (%)
same,Treatment-emergent AE: Nausea,"phase 1, 600 mg, n = 6",4 (66.7) n (%)
same,Treatment-emergent AE: Neutropenia,"phase 1, 600 mg, n = 6",0 n (%)
same,Treatment-emergent AE: Night sweats,"phase 1, 600 mg, n = 6",1 (16.7) n (%)
same,Treatment-emergent AE: Pain in extremity,"phase 1, 600 mg, n = 6",1 (16.7) n (%)
same,Treatment-emergent AE: Petechiae,"phase 1, 600 mg, n = 6",0 n (%)
same,Treatment-emergent AE: Pyrexia,"phase 1, 600 mg, n = 6",2 (33.3) n (%)
same,Treatment-emergent AE: Skin lesion,"phase 1, 600 mg, n = 6",0 n (%)
same,Treatment-emergent AE: Thrombocytopenia,"phase 1, 600 mg, n = 6",1 (16.7) n (%)
same,Treatment-emergent AE: Upper respiratory tract infection,"phase 1, 600 mg, n = 6",0 n (%)
same,Treatment-emergent AE: Vomiting,"phase 1, 600 mg, n = 6",3 (50.0) n (%)
same,Treatment-emergent AE: Abdominal distension,[2],9 (20.9) n (%)
same,Treatment-emergent AE: Abdominal pain,[2],6 (14.0) n (%)
same,Treatment-emergent AE: Anemia,[2],3 (7.0) n (%)
same,Treatment-emergent AE: Any AE,[2],8 (18.6) n (%)
same,Treatment-emergent AE: Asthenia,[2],6 (14.0) n (%)
same,Treatment-emergent AE: Back pain,[2],7 (16.3) n (%)
same,Treatment-emergent AE: Cardiac murmur,[2],6 (14.0) n (%)
same,Treatment-emergent AE: Chills,[2],5 (11.6) n (%)
same,Treatment-emergent AE: Constipation,[2],11 (25.6) n (%)
same,Treatment-emergent AE: Cough,[2],5 (11.6) n (%)
same,Treatment-emergent AE: Decreased appetite,[2],8 (18.6) n (%)
same,Treatment-emergent AE: Dehydration,[2],5 (11.6) n (%)
same,Treatment-emergent AE: Diarrhea,[2],28 (65.1) n (%)
same,Treatment-emergent AE: Dizziness,[2],6 (14.0) n (%)
same,Treatment-emergent AE: Dyspnea,[2],9 (20.9) n (%)
same,Treatment-emergent AE: Edema peripheral,[2],10 (23.3) n (%)
same,Treatment-emergent AE: Epistaxis,[2],7 (16.3) n (%)
same,Treatment-emergent AE: Fatigue,[2],9 (20.9) n (%)
same,Treatment-emergent AE: Hyperbilirubinemia,[2],5 (11.6) n (%)
same,Treatment-emergent AE: Hyperuricemia,[2],5 (11.6) n (%)
same,Treatment-emergent AE: Insomnia,[2],7 (16.3) n (%)
same,Treatment-emergent AE: Nausea,[2],19 (44.2) n (%)
same,Treatment-emergent AE: Neutropenia,[2],2 (4.7) n (%)
same,Treatment-emergent AE: Night sweats,[2],6 (14.0) n (%)
same,Treatment-emergent AE: Pain in extremity,[2],5 (11.6) n (%)
same,Treatment-emergent AE: Petechiae,[2],5 (11.6) n (%)
same,Treatment-emergent AE: Pyrexia,[2],9 (20.9) n (%)
same,Treatment-emergent AE: Skin lesion,[2],5 (11.6) n (%)
same,Treatment-emergent AE: Thrombocytopenia,[2],2 (4.7) n (%)
same,Treatment-emergent AE: Upper respiratory tract infection,[2],5 (11.6) n (%)
same,Treatment-emergent AE: Vomiting,[2],16 (37.2) n (%)
same,Treatment-emergent AE: Abdominal distension,[3],0 n (%)
same,Treatment-emergent AE: Abdominal pain,[3],1 (2.3) n (%)
same,Treatment-emergent AE: Anemia,[3],7 (16.3) n (%)
same,Treatment-emergent AE: Any AE,[3],35 (81.4) n (%)
same,Treatment-emergent AE: Asthenia,[3],2 (4.7) n (%)
same,Treatment-emergent AE: Back pain,[3],0 n (%)
same,Treatment-emergent AE: Cardiac murmur,[3],0 n (%)
same,Treatment-emergent AE: Chills,[3],0 n (%)
same,Treatment-emergent AE: Constipation,[3],0 n (%)
same,Treatment-emergent AE: Cough,[3],0 n (%)
same,Treatment-emergent AE: Decreased appetite,[3],0 n (%)
same,Treatment-emergent AE: Dehydration,[3],0 n (%)
same,Treatment-emergent AE: Diarrhea,[3],3 (7.0) n (%)
same,Treatment-emergent AE: Dizziness,[3],0 n (%)
same,Treatment-emergent AE: Dyspnea,[3],0 n (%)
same,Treatment-emergent AE: Edema peripheral,[3],2 (4.7) n (%)
same,Treatment-emergent AE: Epistaxis,[3],1 (2.3) n (%)
same,Treatment-emergent AE: Fatigue,[3],4 (9.3) n (%)
same,Treatment-emergent AE: Hyperbilirubinemia,[3],0 n (%)
same,Treatment-emergent AE: Hyperuricemia,[3],1 (2.3) n (%)
same,Treatment-emergent AE: Insomnia,[3],0 n (%)
same,Treatment-emergent AE: Nausea,[3],0 n (%)
same,Treatment-emergent AE: Neutropenia,[3],3 (7.0) n (%)
same,Treatment-emergent AE: Night sweats,[3],0 n (%)
same,Treatment-emergent AE: Pain in extremity,[3],0 n (%)
same,Treatment-emergent AE: Petechiae,[3],0 n (%)
same,Treatment-emergent AE: Pyrexia,[3],3 (7.0) n (%)
same,Treatment-emergent AE: Skin lesion,[3],0 n (%)
same,Treatment-emergent AE: Thrombocytopenia,[3],6 (14.0) n (%)
same,Treatment-emergent AE: Upper respiratory tract infection,[3],0 n (%)
same,Treatment-emergent AE: Vomiting,[3],0 n (%)
same,SAE Management/Outcome,"phase 1, listing per patient and SAE",Fatal; also recorded: Dose not changed; recovered/resolved with sequelae; also recorded: Drug withdrawn; recovered/resolved with sequelae; also recorded: Drug interrupted; recovered/resolved with sequelae
same,Deaths attributed to AEs,"phase 1, n = 43",Seven
same,Discontinuations because of an AE considered treatment related,"phase 1, n = 43",three
same,Dose interruptions due to AEs,"phase 1, n = 43",18 patients
same,Dose reductions due to AEs,"phase 1, n = 43",9 patients
same,Grade 3/4 anemia,"phase 1, n = 43",16.3%
same,Grade 3/4 thrombocytopenia,"phase 1, n = 43",14.0%
same,Grade 3 treatment-related AEs,"phase 1, n = 43",20.9%
same,Grade 4 treatment-related AEs,"phase 1, n = 43",4.7%
same,Patients who died during study participation,"phase 1, n = 43",32.6%
same,Patients who discontinued pacritinib because of an AE,"phase 1, n = 43",Eight
same,Patients with SAEs,"phase 1, n = 43",44.2%
same,Patients with SAEs considered treatment related,"phase 1, n = 43",9.3%
same,Treatment-related AE: diarrhea,"phase 1, n = 43",65.1%
same,Treatment-related AE: nausea,"phase 1, n = 43",34.9%
same,Treatment-related AE: thrombocytopenia,"phase 1, n = 43",11.6%
same,Treatment-related AE: vomiting,"phase 1, n = 43",23.3%
